Source: EP4029501A1, “COMBINATION OF POLYAROMATIC UREA DERIVATIVES AND GLUCOCORTICOID OR HDAC INHIBITOR FOR THE TREATMENT OF DISEASES OR CONDITIONS ASSOCIATED WITH MUSCLE CELLS AND/OR SATELLITE CELLS” (Anagenesis Biotechnologies, priority 2021, dated 2022)

What was measured:
Type in all cases: cell-based, human
[1] = tested on: muscle progenitors derived from DMD hiPSC; assay: Myotube assay: total myotube area per well (alpha-actinin staining); details: Homo sapiens, Myotube, 72 h, DMD or WT cell source not given; for Emax: efficacy, MA = normalized Myotube Area, 3 days incubation; for EC50: myogenic activity, half-maximal generation of myotubes, 10 points dose-response 1.5 nM to 30 µM, 3 days
Outline: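 DMD hiPSC-derived muscle progenitors (NCRM-1 background) plated at 3500 cells/well in K5 medium with 5 µM Y-27632, then exposed to compound at 1.5 nM–30 µM for 3 days at 37°C. Cells fixed on day 7, alpha-actinin-immunostained and total myotube area per well quantified; duplicates averaged, EC50 and normalized myotube area derived.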

[2] = tested on: muscle progenitors derived from DMD hiPSC; assay: Dose response assay of combination treatments with Givinostat or Prednisolone: total myotube area; details: Homo sapiens, Myotube; compound alone, DRC 4.5 nM to 10 µM, DMD hMPs (figure 6); read-out: potency (EC50) on myotube surface
Source text: (§1) • Figure 1 - the workflow of the myotube assay, aiming at monitoring myogenic activity of compounds and effect on satellite-like cells. • Figure 2 - the myogenic activity of compound (i) in a dose-response assay, as shown by an increase of the total myotube surface/well upon increase of compound concentration. • Figure 3 - the positive effect on satellite-like cells of compound (i) in a dose-response assay, as shown by the increase of Pax7-positive cell percentage upon increase of compound concentration. • Figure 4 - representative images for the dose-response of the total myotube area readout for compound (i), corresponding to Figure 2. • Figure 5 - representative images for the dose-response of the percentage of Pax7-positive cell readout for compound (i), corresponding to Figure 3. • Figure 6 - Dose-response curve on muscle progenitors derived from DMD hiPSC. Treatment of muscle progenitors derived from DMD hiPSC with Prednisolone or Givinostat alone inducing a beneficial effect on α-actinin expression (representative of the myotube surface) and a loss of nearly 50 % of Pax7 positive cells (representative of the population of satellite cells) in a dose-dependent manner. The highest concentration represented is 10 µM. The arrows show the point a 0.3 µM. Efficacy values correspond to the highest score of normalized myotube surface (y-axis). Activity values correspond to the half maximal effective concentration (EC50; x-axis). The curve fits were calculated using a 4-parameter logistic regression model (Graphpad PRISM software). Error bars show standard deviation (SD). The picture on the right panel is representative of the highest myotube surface value of the dose-response curve. • Figures 7-9 - Dose-response curve on muscle progenitors derived from DMD hiPSC. Treatment in a dose-dependent manner of muscle progenitors derived from DMD hiPSC with indicated compound alone or with combination with Prednisolone or Givinostat at 0.3 µM. The combination induced an improvement of myogenic capabilities seen with α-actinin expression (representative of the myotube surface) and harbor no worsening of the Pax7 positive cells (representative of the population of satellite cells) compared to Prednisolone or Givinostat alone. The highest concentration of DRC is 10 µM.
Efficacy values correspond to the highest score of normalized myotube surface (y-axis). Activity values correspond to the half maximal effective concentration (EC50; x-axis). The curve fits were calculated using a 4-parameter logistic regression model (Graphpad PRISM software). Error bars show standard deviation (SD). The picture on the right panel is representative of the highest myotube surface value of the dose-response curve.
(§2) Figure 1 provides an example of a Myotube assay workflow. At day 0, hMP are thawed and 3.1 million cells are plated into a T75-flask coated with hESC-qualified Matrigel™ (Corning) in SkGM proliferating medium (PromoCells), supplemented with 5 µM Y-27632 (Tocris Bioscience). On day 2, SkGM proliferating medium is refreshed. On day 4, hMP are harvested and transferred into a 384-well plate coated with collagen type I at a density of 3500 cells/well in a DMEM-based medium, containing 5% of knockout serum replacement (Gibco), 1% PenStrep (Gibco), 1% MEM NEAA (Gibco) and 0.1 mM 2-mercaptoethanol (Gibco) (hereafter "K5 medium") and 5 µM Y-27632. Compounds to be tested are then added in the medium and incubated for 3 days at 37°C. On day 7, cells are fixed and immunostained. For example, myotubes (alpha-actinin staining) and satellite-like (Pax7 staining) cells can be analyzed for total myotube area per well or Pax7-positive cell quantification.
DMD hMPs were put in the Myotube assay according to the workflow described in example 2.1. […]

[3] = tested on: Pax7 positive cells; assay: Dose response assay of combination treatments with Givinostat or Prednisolone: percentage of Pax7-positive cells; details: for drop of satellite cells content: compound alone at 0.3 µM, DMD hMPs (figure 6); for loss of Pax7 positive cells: compound alone, dose-dependent, highest concentration 10 µM (Figure 6 legend)
Source text: as §1, §2
DMD hMPs were put in the Myotube assay according to the workflow described in example 2.1. In particular, Prednisolone (Sigma) or Givinostat (Exclusive Chemistry) were added in all conditions at a fixed concentration equal to 0.3 µM in combination with compounds az or bw or q tested in DRC at 8 concentrations ranging from 4.5 nM to 10 µM, starting from day 4. Also, as control, DRCs with the same range of concentrations were done with Prednisolone alone, Givinostat (figure 6) alone or compounds az or bw or q alone (figures 7 to 9). […]

`CC(C)(C)c1cc(NC(=O)Nc2ccc(Oc3ccnc4[nH]c(=O)cnc34)cc2F)n(Cc2ccccc2)n1` [(j), 1-(1-benzyl-3-(tert-butyl)-1 H-pyrazol-5-yl)-3-(2-fluoro-4-((3-oxo-3,4-dihydropyrido[2,3-b]pyrazin-8-yl)oxy)phenyl)urea] was tested, and the Emax [1] was 50 to 75% and the EC50 [1] was 1 to 5 µM.

`CC(C)(C)c1cc(NC(=O)Nc2ccc(Oc3ccnc4[nH]c(=O)cnc34)cc2F)n(CCN2CCOCC2)n1` [(k), 1-(3-(tert-butyl)-1-(2-morpholinoethyl)-1 H-pyrazol-5-yl)-3-(2-fluoro-4-((3-oxo-3,4-dihydropyrido[2,3-b]pyrazin-8-yl)oxy)phenyl)urea] showed an Emax [1] of 50 to 75% and an EC50 [1] of 1 to 5 µM.

Work on `CC(C)(C)c1cc(NC(=O)Nc2ccc(Oc3ccnc4[nH]c(=O)cnc34)cc2F)n(-c2cccnc2)n1` [(l), 1-(3-(tert-butyl)-1-(pyridin-3-yl)-1 H-pyrazol-5-yl)-3-(2-fluoro-4-((3-oxo-3,4-dihydropyrido[2,3-b]pyrazin-8-yl)oxy)phenyl)urea] yielded an Emax [1] of 50 to 75% and an EC50 [1] of 0.5 to 1 µM.

With `CC(C)(C)c1cc(NC(=O)Nc2ccc(Oc3ccnc4[nH]c(=O)cnc34)cc2F)n(-c2ncccn2)n1` [(m), 1-(3-(tert-butyl)-1-(pyrimidin-2-yl)-1 H-pyrazol-5-yl)-3-(2-fluoro-4-((3-oxo-3,4-dihydropyrido[2,3-b]pyrazin-8-yl)oxy)phenyl)urea] the Emax [1] was 50 to 75% and the EC50 [1] was ≥ 5 µM.

In the case of `CC(C)(C)c1cc(NC(=O)Nc2ccc(Oc3ccnc4[nH]c(=O)cnc34)cc2F)n(-c2ccc3ncccc3c2)n1` [(n), 1-(3-(tert-butyl)-1-(quinolin-6-yl)-1 H-pyrazol-5-yl)-3-(2-fluoro-4-((3-oxo-3,4-dihydropyrido[2,3-b]pyrazin-8-yl)oxy)phenyl)urea], the Emax [1] is reported as ≥ 75% and the EC50 [1] is reported as < 0.5 µM.

`CC(=O)n1nc(C(C)(C)C)cc1NC(=O)Nc1ccc(Oc2ccnc3[nH]c(=O)cnc23)cc1F` [(o), 1-(1-acetyl-3-(tert-butyl)-1 H-pyrazol-5-yl)-3-(2-fluoro-4-((3-oxo-3,4-dihydropyrido[2,3-b]pyrazin-8-yl)oxy)phenyl)urea] was tested, and the Emax [1] was 25 to 50% and the EC50 [1] was ≥ 5 µM.

`CC(C)(C)c1nc(NC(=O)Nc2ccc(Oc3ccnc4[nH]c(=O)cnc34)cc2F)n(-c2ccccc2)n1` [(p), 1-(3-(tert-butyl)-1-phenyl-1 H-1,2,4-triazol-5-yl)-3-(2-fluoro-4-((3-oxo-3,4-dihydropyrido[2,3-b]pyrazin-8-yl)oxy)phenyl)urea] showed an Emax [1] of 25 to 50% and an EC50 [1] of 0.5 to 1 µM.

With `CC(C)(C)c1nnc(NC(=O)Nc2ccc(Oc3ccnc4[nH]c(=O)cnc34)cc2F)s1` [(r), 1-(5-(tert-butyl)-1,3,4-thiadiazol-2-yl)-3-(2-fluoro-4-((3-oxo-3,4-dihydropyrido[2,3-b]pyrazin-8-yl)oxy)phenyl)urea] the Emax [1] was ≥ 75% and the EC50 [1] was ≥ 5 µM.

Work on `CC(C)(C)c1cc(NC(=O)Nc2ccc(Oc3ccnc4[nH]c(=O)cnc34)cc2)n(-c2ccccc2)n1` [(s), 1-(3-(tert-butyl)-1-phenyl-1 H-pyrazol-5-yl)-3-(4-((3-oxo-3,4-dihydropyrido[2,3-b]pyrazin-8-yl)oxy)phenyl)urea] yielded an Emax [1] of 50 to 75% and an EC50 [1] of 0.5 to 1 µM.

With `CC(C)(C)c1cc(NC(=O)Nc2ccc(Oc3ccnc4[nH]c(=O)cnc34)nc2)n(-c2ccccc2)n1` [(t), 1-(3-(tert-butyl)-1-phenyl-1 H-pyrazol-5-yl)-3-(6-((3-oxo-3,4-dihydropyrido[2,3-b]pyrazin-8-yl)oxy)pyridin-3-yl)urea] the Emax [1] was 25 to 50% and the EC50 [1] was < 0.5 µM.

In the case of `CC(C)(C)c1cc(NC(=O)Nc2ccc(Oc3ccnc4[nH]c(=O)cnc34)cn2)n(-c2ccccc2)n1` [(u), 1-(3-(tert-butyl)-1-phenyl-1 H-pyrazol-5-yl)-3-(5-((3-oxo-3,4-dihydropyrido[2,3-b]pyrazin-8-yl)oxy)pyridin-2-yl)urea], the Emax [1] is reported as 25 to 50% and the EC50 [1] is reported as 1 to 5 µM.

In the case of `CC(C)(C)c1cc(NC(=O)Nc2ccc(Oc3ccnc4[nH]c(=O)cnc34)cc2C(F)(F)F)n(-c2ccccc2)n1` [(v), 1-(3-(tert-butyl)-1-phenyl-1H-pyrazol-5-yl)-3-(4-((3-oxo-3,4-dihydropyrido[2,3-b]pyrazin-8-yl)oxy)-2-(trifluoromethyl)phenyl)urea], the Emax [1] is reported as ≥ 75% and the EC50 [1] is reported as < 0.5 µM.

`Cc1nc2c(Oc3ccc(NC(=O)Nc4cc(C(C)(C)C)nn4-c4ccccc4)c(F)c3)ccnc2c(=O)[nH]1` [(w), 1-(3-(tert-butyl)-1-phenyl-1 H-pyrazol-5-yl)-3-(2-fluoro-4-((2-methyl-4-oxo-3,4-dihydropyrido[3,2-d]pyrimidin-8-yl)oxy)phenyl)urea] showed an Emax [1] of 50 to 75% and an EC50 [1] of 1 to 5 µM.

With `O=C(Nc1ccc(Oc2ccnc3[nH]c(=O)cnc23)cc1F)Nc1c2c(nn1-c1ccccc1)CCC2` [(x), 1-(2-fluoro-4-((3-oxo-3,4-dihydropyrido[2,3-b]pyrazin-8-yl)oxy)phenyl)-3-(2-phenyl-2,4,5,6-tetrahydrocyclopenta[c]pyrazol-3-yl)urea] the Emax [1] was 25 to 50% and the EC50 [1] was ≥ 5 µM.

With `O=C(Nc1ccc(Oc2ccnc3[nH]c(=O)cnc23)cc1F)Nc1c(-c2ccccc2)nn2c1CCC2` [(y), 1-(2-fluoro-4-((3-oxo-3,4-dihydropyrido[2,3-b]pyrazin-8-yl)oxy)phenyl)-3-(2-phenyl-5,6-dihydro-4H-pyrrolo[1,2-b]pyrazol-3-yl)urea] the Emax [1] was 25 to 50% and the EC50 [1] was ≥ 5 µM.

In the case of `CSc1cc(Oc2ccnc3[nH]c(=O)cnc23)ccc1NC(=O)Nc1nnc(C(C)(C)C)s1` [(z), 1-(5-(tert-butyl)-1,3,4-thiadiazol-2-yl)-3-(2-(methylthio)-4-((3-oxo-3,4-dihydropyrido[2,3-b]pyrazin-8-yl)oxy)phenyl)urea], the Emax [1] is reported as ≥ 75% and the EC50 [1] is reported as ≥ 5 µM.

In the case of `CCN(CC)Cc1ccc2cc(COC(=O)Nc3ccc(C(=O)NO)cc3)ccc2c1` [Givinostat, reference compound], the EC50 [2] is reported as ≤ 0.17 µM, the “drop of satellite cells content” value [3] is reported as “about 50%” and the “loss of Pax7 positive cells” value [3] is reported as ~50%.

In the case of `C[C@]12C=CC(=O)C=C1CC[C@@H]1[C@@H]2[C@@H](O)C[C@@]2(C)[C@H]1CC[C@]2(O)C(=O)CO` [Prednisolone, reference compound], the EC50 [2] is reported as ≤ 0.17 µM, the “drop of satellite cells content” value [3] is reported as “about 50%” and the “loss of Pax7 positive cells” value [3] is reported as ~50%.
